Source: US20210220358A1, “1,3-THIAZOL-2-YL SUBSTITUTED BENZAMIDES FOR THE TREATMENT OF DISEASES ASSOCIATED WITH NERVE FIBER SENSITIZATION” (Bayer Aktiengesellschaft, priority 2018, published 2021)

Assays:
healthy young males [1] = test: Adverse events (side effect profile) in multiple dose study; format: in vivo, humans
Method: (§1) In a first part of a two-part, double-blind, placebo-controlled, randomized, parallel-group study safety and tolerability of ascending repeated oral doses of the drug to be tested are assessed in 47 healthy male volunteers, followed by a second two-way crossover administration of four different doses in 40 patients with refractory chronic cough to assess safety, tolerability and efficacy for proof of concept.
(§2) In the first part of the above-described protocol, 3-(5-Methyl-1,3-thiazol-2-yl)-5-[(3R)-tetrahydrofuran-3-yloxy]-N-{(1R)-1-[2-(trifluoromethyl)pyrimidin-5-yl]ethyl}-benzamide has been administered as multiple oral dose with increasing amounts starting from 10 mg per subject twice daily to 750 mg per subject twice daily in comparison with placebo to healthy young males. […] The treatment duration was 14 days.
as §1, with “study, the” for “study”, “36” for “47”, “second part with a” for “second”, “in” for “in 40”
(§3) The treatment duration was 14 days.

healthy young males [2] = test: Taste related adverse events recorded during clinical studies; format: in vivo, humans
Excerpt: Taste related adverse events describe adverse events that lead to a change in taste perception, e.g. dysgeusia (distortion of taste), hypogeusia (decrease in taste sensitivity) and ageusia (complete lack of taste).
Adverse events (AE) in the context of a clinical study are defined as any untoward medical occurrence (i.e. any unfavorable and unintended sign including abnormal laboratory findings, symptom or disease) in a patient or clinical investigation subject after providing written informed consent for participation in the study. Therefore, an AE may or may not be temporally or causally associated with the use of a medicinal (investigational) product.
3-(5-Methyl-1,3-thiazol-2-yl)-5-[(3R)-tetrahydrofuran-3-yloxy]-N-{(1R)-1-[2-(trifluoromethyl)pyrimidin-5-yl]ethyl}benzamide has been administered as single oral dose with increasing amounts starting from 10 mg per subject to 800 mg per subject in comparison with placebo to healthy young males.
as §2, §3

healthy young males [3] = test: Taste assessment test (Taste Strips) during clinical studies; format: in vivo, humans
Excerpt: The Taste Strips (Burghart Messtechnik GmbH) are a validated test method for ascertaining tasting performance (ISO certified). The following concentrations have been applied on the taste strips: sweet: 0.4, 0.2, 0.1, 0.05 g/ml sucrose; sour: 0.3, 0.165, 0.09, 0.05 g/ml citric acid; salty: 0.25, 0.1, 0.04, 0.016 g/ml sodium chloride; bitter: 0.006, 0.0024, 0.0009, 0.0004 g/ml quinine hydrochloride. The Strips were used to check the tasting performance of the whole mouth by placing a Taste Strip on the tongue and closing the mouth (the subject can move the tongue). […] Afterwards and between the 4 taste strips the mouth was rinsed with a sip of tap water according to individual needs. […] The taste strips were presented in a pseudo-randomized order (increasing concentration for each quality) and placed on the tongue. The subject's task was to choose one of five possible answers on a form (sweet, sour, salty, bitter, no taste). Before and after each testing, the mouth was rinsed with a sip of tap water according to individual needs. The lowest concentrations of each taste quality should have been identified by half of the healthy subjects only; the highest concentration should have been identified by approximately 100% of the subjects.
The taste strips were tested under blinded conditions to the subject. The number of correctly identified taste strips per subjects was counted with the maximum number achievable being 18 points (4 concentration/taste quality plus to blank paper strips).

[4] = tested on: human P2X3 and human P2X2/3 receptors; settings: cited from earlier work
human vagus nerve = test: Vagal depolarization - inhibition of human vagus nerve by P2X3 inhibitors (grease-gap recording); settings: TRPV4 agonist GSK 1016790A 300 nM; FIG. 1
Method: The aim of the study is to test the effects of P2X3 antagonists on the deoplarisation of human vagus nerve as an ex vivo measure of blocking Chronic Cough. Human vagal tissue was dissected from 4 human lungs (obtained from healthy tissue donors).
The tissue was assayed using an O2/CO2 gassed, grease-gap recording system as described in Birrell et al, Am J Respir Crit Care Med. 2009, 180:1042-1047; Bonvini et al, J Allergy Clin Immunol. 2016, 138 (1), 249-261, Bonvini et al, Naunyn Schmiedebergs Arch Pharmacol. 2015, 388: 401-420. Briefly, after the tissue had stabilised it was exposed to two 2 minute challenges with a sub-maximal concentration of agonists (TRPV4 agonist GSK 1016790A, 300 nM). Sub-maximal concentration means a concentration where no full efficacy is observed, i.e. stimulation with the agonist within the dynamic range. Typical values are 80% of the maximal efficacy that can be achieved. The tissue was then exposed to vehicle (0.1 Vol % DMSO solution in Krebs buffer) or test compound for 10 minutes and then the tissue was re-challenged with agonist in the presence of the test compound. […] Only one experiment was performed on each piece of tissue and n=4 means tissue from 4 different lungs[…]. The data was electrophysiologically recorded as actual depolarisation levels and presented as mean percentage inhibition. Results can be found in FIG. 1.

treated subjects = settings: Clinical Phase II trials (Abdulqawi et al 2015; Strand et al 2015); cited from earlier work
[5] = multiple oral dose 10 mg to 750 mg twice daily, 14 days

SMILES | nausea (healthy young males [1]; multiple dose study, 50 mg dose) | adverse events physical dependency, increased heart rate, xerostomia, constipation, drowsiness and sedation (healthy young males [1]; [5]) | taste AE duration (healthy young males [2]; 1 subject treated with 200 mg twice daily, on day 11) | influence on perception of taste based on spontaneously reported adverse events (healthy young males [2]; [5]) | course of change in taste perception (healthy young males [2]; one subject treated with 200 mg twice daily) | taste AE duration (healthy young males [2]; one subject treated with 750 mg twice daily, on day 3) | taste related adverse events (healthy young males [2]; single oral dose, 10 mg to 800 mg per subject, versus placebo) | effects on taste perception based on the taste assessment test (healthy young males [3]; [5]) | changes in taste scores under treatment (healthy young males [3]; single oral dose 10 mg to 800 mg) | effects on taste perception based on the taste assessment test (healthy young males [3]; single oral dose 10 mg to 800 mg, tests at baseline, 3 hrs and 6 days after drug administration) | selectivity P2X3 homomer versus P2X2/3 [4] | effect size / efficacy in blocking vagus nerve depolarization, compared between compounds (human vagus nerve) | taste disturbances in treated subjects (treated subjects)
Cc1cnc(-c2cc(O[C@@H]3CCOC3)cc(C(=O)N[C@H](C)c3cnc(C(F)(F)F)nc3)c2)s1 [3-(5-methyl-1,3-thiazol-2-yl)-5-[(3R)-tetrahydrofuran-3-yloxy]-N-{(1R)-1-[2-(trifluoromethyl)pyrimidin-5-yl]ethyl}benzamide] | one case of nausea | no such adverse events | 2 h | in few subjects only | repeatedly occurring during continued treatment starting on treatment day 4 and lasting until 5 days after end of treatment | 0.5 h | No taste related adverse were observed | no relevant effects on taste perception (No relevant effects on taste perception in the context of the present invention mean that no effect on taste perception has been observed in at least 80% of subjects under treatment according to the above-described protocol over a period of 14 days) | no significant or relevant changes in taste scores were observed | no relevant effects on taste perception were observed | – | – | –
COc1cc(C(C)C)c(Oc2cnc(N)nc2N)cc1S(N)(=O)=O [AF-219, 5-(2,4-diamino-pyrimidin-5-yloxy)-4-isopropyl-2-methoxy-benzenesulfonamide] | – | – | – | – | – | – | – | – | – | – | P2X3 and P2X2/3 non-selective | the effect size observed was the same | leads to taste disturbances in treated subjects
